Like-named read-outs stand apart in the source and are kept apart here.
Experiments:
[1] = Example 6: multiple-dose study in iron-overloaded human subjects (PK); type: in vivo; conditions: for half-life / Tmax / CL renal / Cmax / AUC(0-t) / Vd/F: both sexes, human, plasma; for AUC(0-t): read-out: AUC(0 - 24); for Vd/F: read-out: Vz/F
Source text: Example 6 was a multiple-dose, escalating study in iron-overloaded subjects conducted at 5 centers in the US, Australia, and Thailand.
Men and women at least 18 years of age qualified to participate if they were able to voluntarily give consent and had transfusional overload requiring treatment with an iron chelator and were willing to discontinue their chelation for a period of at least 5 days prior to screening and during the study for a total of up to 35 days. […] The mean of each subject's last 3 pre-transfusion hemoglobin levels (prior to screening) was ≧7.5 g/dL and their serum ferritin was >400 ng/mL. Subjects also agreed to use an approved method of contraception during the study.
The study enrolled 20 subjects with the following primary diagnoses requiring chronic transfusions:
• 2 β-thalassemia major • 2 sickle cell anemia Cohort 2 (8 mg/kg): • 1α-thalassemia major (α°/α°) • 2 β-thalassemia major • 1 congenital dyserythropoietic anemia Cohort 3 (16 mg/kg): • 4 β-thalassemia major Cohort 4 (32 mg/kg): • 1 α-thalassemia major)(α°/α° • 2 β-thalassemia/hemoglobin E • 1 sickle cell anemia Cohort 5 (40 mg/kg): • 2 β-thalassemia major • 2 β-thalassemia/hemoglobin E

iron = test: Pharmacodynamics: iron in 24-hour urine; type: in vivo, human
Experimental: Urine was collected for 24 hours following administration of Compound 1. […] In other studies, a more sensitive urinary iron assay was employed (LLOQ 10 μg/dL).

[2] = 3 mg/kg/day, 7 days oral, N = 4
[3] = 8 mg/kg/day, 7 days oral, N = 4
[4] = 16 mg/kg/day, 7 days oral, N = 4
[5] = 32 mg/kg/day, 7 days oral, N = 2
[6] = 32 mg/kg/day, 7 days oral, N = 4
[7] = 40 mg/kg/day, 7 days oral, N = 4

## COCCOCCOCCOc1cccc(C2=N[C@@](C)(C(=O)O)CS2)c1O [Compound 1, (S)-4,5-Dihydro-2-[2-hydroxy-3-(3,6,9-trioxadecyloxy)phenyl]-4-methyl-4-thiazolecarboxylate magnesium hydroxide]
[1]; [2]
  CL/F: 162 ± 85.0 mL/min
  Fe(0-24): 44.0 ± 16.0 % oral dose
  Ue(0-24): 66.1 ± 24.0 mg
  λz: 0.0655 ± 0.0606 h⁻¹
  CL renal: 75.2 ± 46.8 mL/min
  Cmax: 5910 ± 2300 ng/mL
  AUC(0-t): 19500 ± 11300 ng·h/mL
  Vd/F: 185 ± 84.1 L
[1]; [3]
  CL/F: 225 ± 142 mL/min
  Fe(0-24): 47.2 ± 13.8 % oral dose
  Ue(0-24): 201 ± 68.1 mg
  λz: 0.0424 ± 0.0249 h⁻¹
  CL renal: 105 ± 62.9 mL/min
  Cmax: 15000 ± 4440 ng/mL
  AUC(0-t): 44900 ± 30800 ng·h/mL
  Vd/F: 311 ± 137 L
[1]; [4]
  CL/F: 206 ± 78.4 mL/min
  Fe(0-24): 39.2 ± 5.86 % oral dose
  Ue(0-24): 402 ± 103 mg
  λz: 0.0421 ± 0.0246 h⁻¹
  CL renal: 83.2 ± 3600 mL/min
  Cmax: 38200 ± 3950 ng/mL
  AUC(0-t): 92300 ± 36600 ng·h/mL
  Vd/F: 339 ± 166 L
[1]; [5]
  λz: 0.0381 ± 0.0091^a hr^−1
  Vd/F: 214 L
[1]; [6]
  CL/F: 172 ± 60.1 mL/min
  Fe(0-24): 43.1 ± 15.8 % oral dose
  Ue(0-24): 641 ± 208 mg
  CL renal: 73.6 ± 37.8 mL/min
  Cmax: 68200 ± 27500 ng/mL
  AUC(0-t): 158000 ± 43500 ng·h/mL
[1]; [7]
  CL/F: 223 ± 23.6 mL/min
  Fe(0-24): 48.4 ± 14.0 % oral dose
  Ue(0-24): 905 ± 247 mg
  λz: 0.0544 ± 0.0071 h⁻¹
  CL renal: 107 ± 26.2 mL/min
  Cmax: 68600 ± 11000 ng/mL
  AUC(0-t): 141000 ± 8070 ng·h/mL
  Vd/F: 249 ± 40.4 L
[1]; after 7 days of daily dosing
  time of maximum plasma concentrations, mean: 1.24 h
[1]; after 7 days of daily dosing, 3-40 mg/kg/day
  time of maximum plasma concentrations, range: 1.0 to 1.49 h
[1]; oral, across 5 cohorts, read-out: mean t1/2, range
  half-life: 12.9 to 21.3 h
[1]; oral, across 5 cohorts, read-out: median values for tmax, range
  Tmax: 1 to 1.49 h
[1]; 3 mg/kg/day, 7 days oral, N = 4, read-out: T1/2 (converted)
  half-life: 16.2 ± 8.32 h
[1]; 3 mg/kg/day, 7 days oral, median, read-out: tmax
  Tmax: 1.31 h
[1]; 8 mg/kg/day, 7 days oral, N = 4, read-out: T1/2 (converted)
  half-life: 20.9 ± 11.3 h
[1]; 8 mg/kg/day, 7 days oral, median, read-out: tmax
  Tmax: 1.18 h
[1]; 16 mg/kg/day, 7 days oral, N = 4, read-out: T1/2 (converted)
  half-life: 21.3 ± 11.8 h
[1]; 16 mg/kg/day, 7 days oral, median, read-out: tmax
  Tmax: 1 h
[1]; 32 mg/kg/day, 7 days oral, N = 2, read-out: T1/2 (converted)
  half-life: 18.7 h
[1]; 32 mg/kg/day, 7 days oral, median, read-out: tmax
  Tmax: 1.49 h
[1]; 40 mg/kg/day, 7 days oral, N = 4, read-out: T1/2 (converted)
  half-life: 12.9 ± 1.68 h
[1]; 40 mg/kg/day, 7 days oral, median, read-out: tmax
  Tmax: 1.26 h
iron; all doses, LLOQ of iron approximately 195 μg/dL
  iron in 24 hour urine: no detectable iron
iron; other studies, LLOQ 10 μg/dL, no dose-dependent trends
  iron in urine, more sensitive assay: Iron was detected in the urine of all subjects
